Data on four molecules can be found in BindingDB's records for patent US20240368133 (Confo Therapeutics, 2024).

SMILES strings stand for the structures.

This experiment has as its target T1, Type-2 angiotensin II receptor/Low affinity immunoglobulin epsilon Fc receptor (Homo sapiens, UniProt P06734+P50052).
T1 sequence (P50052 whole entry): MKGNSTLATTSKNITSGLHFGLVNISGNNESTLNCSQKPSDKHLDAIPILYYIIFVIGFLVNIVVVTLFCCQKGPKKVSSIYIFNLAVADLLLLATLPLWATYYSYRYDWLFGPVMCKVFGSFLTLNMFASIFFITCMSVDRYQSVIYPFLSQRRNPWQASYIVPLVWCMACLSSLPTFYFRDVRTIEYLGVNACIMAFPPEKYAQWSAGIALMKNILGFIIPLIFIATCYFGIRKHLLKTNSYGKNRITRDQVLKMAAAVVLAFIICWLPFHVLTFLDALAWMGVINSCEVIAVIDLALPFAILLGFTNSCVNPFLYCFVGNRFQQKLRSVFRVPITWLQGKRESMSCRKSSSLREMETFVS
T1 sequence (P06734 whole entry): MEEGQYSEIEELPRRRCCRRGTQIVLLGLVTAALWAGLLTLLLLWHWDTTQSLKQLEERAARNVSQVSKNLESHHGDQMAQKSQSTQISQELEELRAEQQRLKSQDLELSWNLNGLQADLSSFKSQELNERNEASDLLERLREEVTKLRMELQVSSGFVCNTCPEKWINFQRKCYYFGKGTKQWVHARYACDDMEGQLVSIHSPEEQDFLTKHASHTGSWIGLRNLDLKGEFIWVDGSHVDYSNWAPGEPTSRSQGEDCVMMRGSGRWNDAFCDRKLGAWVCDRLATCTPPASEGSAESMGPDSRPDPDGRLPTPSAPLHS
Put plainly: Radioligand Assay. The method, then: All synthesized ligands were evaluated in a radioligand assay by displacing 125I-[Sar1, Ile8]-Angiotensin II (Perkin Elmer, NEX248050UC) from human AT2R fused to Cb23 or human/rodent/cynomolgus/minipig/dog WT AT2R in HEK-293 cells membrane preparations, using C21 (Vicore Pharma) and Angiotensin II (endogenous ligand) as reference. The affinity was determined using an eight-point dose-response curve, each point performed in duplicates. The compounds were also evaluated in a counterscreen binding assay for displacement of 125I-[Sar1, Ile8]-Angiotensin II binding to human AT1R in HEK-293 cell membranes. For AT1R, the percent displacement was determined at 1 μM and […] or using an eight-point dose-response curve, each point performed in duplicates with Candesartan and Losartan used as reference.For the AT2R/AT1R binding assays, cell membranes, expressing AT2R_Cb23, AT2R or AT1R, were incubated with 0.05 nM 125I-[Sarl, Ile8]-Ang II. The ligand competition assay was performed in a total volume of 100 μL assay buffer (50 mM Tris, 5 mM MgCl2, 1 mM EDTA, 0.1% BSA, pH 7.4), at concentrations ranging from 1 μM to 10 μM. For each experiment, each ligand concentration was tested in duplicate. Non-specific binding (NSB) was determined by the inclusion of 10 μM unlabeled [Sarl]-Ang II (Sigma Aldrich). The reaction was initiated by the addition of radioligand, after which the plates were incubated at 25° C. for one hour. The reaction was terminated by rapid filtration using a vacuum harvester, applying six washes with 100 μL of ice-cold wash buffer (50 mM Tris.HCl, pH 7.4). The filter plates GF/C (Perkin Elmer) were pre-soaked in 0.5% PEI. The residual amount of radioactivity was determined via liquid scintillation counting. IC50 values, representing the concentration at which each ligand displaced 50% of 125I-[Sarl, Ile8]-Ang II, were calculated using GraphPad Prism 7.02 by applying a Non-linear regression equation (variable slope, four parameters) on the data.
Consider `CCCCNC(=O)NS(=O)(=O)c1ccc(C(F)(F)F)cc1N1CCN(Cc2nc3ccccc3n2C)CC1` [US20240368133, Compound A-10], for which the IC50 is 3.36 µM.

As for `c1ccc2sc(CN3CCN(c4cc(NCC5CC5)ccc4-c4nn[nH]n4)CC3)nc2c1` [US20240368133, Compound A-62], the IC50 came to 1.68 µM.

In turn, `CC(C)Cc1ccc(-c2nn[nH]n2)c(N2CCN(Cc3nc4ncccc4o3)CC2)c1` [US20240368133, Compound A-71] returned an IC50 of 18.5 µM.

Molecule `CCc1nc2ccc(NC(=O)c3ccccc3)cc2c(=O)n1CC1CCN(c2ccccc2-c2nn[nH]n2)CC1` [US20240368133, Compound A-245] showed an IC50 of 9.97 µM.
